Reference: US5574178A, “4,6-Di-t-butyl-dihydrobenzofuran-5-ol and its derivatives” (Chugai Seiyaku Kabushiki Kaisha, priority 1992, dated 1996)

Assays:
Assay type in all cases: biochemical
[1] = test system: xanthine oxidase (XOD)-hypoxanthine (HX) system (superoxide); assay: Xanthine oxidase system (superoxide generating system); conditions: pH 7.4, 37° C.
Description: The test compounds were evaluated under the following conditions for their effect in a reaction due to a xanthine oxidase (XOD)-hypoxanthine (HX) system in aqueous solution.
Xanthine oxidase 0.1 U/ml
Hepes buffer solution (pH 7.4)
(§1) A reaction solution was prepared by mixing hypoxanthine and luminol in the Hepes buffer solution and stored in ice until use. After warming the reaction solution at 37° C. for about 10 min, the reaction was started by addition of the xanthine oxidase solution. A measurement was started right after the addition of xanthine oxidase and subsequent stirring; chemiluminescence intensity was normally measured right after the start of the reaction. In the experimental model, luminol-dependent chemiluminescence induced by superoxide generated by enzymatic reaction of xanthine oxidase was detected, thus enabling the measurement of the reactivity with superoxide.

[2] = target: lipid peroxidation due to the autoxidation of linoleic acid; assay: Linoleic acid-MCLA system, Test Case 4; conditions: linoleic acid 10 mM, MCLA 2 μM, 1-butanol, 37° C.; read-out: 50% inhibition concentration
Description: The test compounds were evaluated for their inhibitory effect against lipid peroxidation due to the autoxidation of linoleic acid.
A reaction solution was prepared by mixing linoleic acid and MCLA (2-methyl-6-(p-methoxyphenyl)-3,7-dihydroimidazo[1,2-a]pyrazin-3-one) in 1-butanol and stored in ice until use. An amount of this reaction solution was sampled in a chemiluminescence measuring cell and, immediately thereafter, the intensity of chemiluminescence due to the autoxidation of linoleic acid was measured at 37° C. in a thermostatic bath. A normal chemiluminescence intensity measurement was conducted about 2-4 min later when the chemiluminescence substantially peaked.

[3] = test system: Rabbit LDL; assay: Amount of TBARS (Cu^2+-induced oxidation of rabbit LDL); conditions: 5 μM Cu^2+
Description: Rabbit LDL was prepared in accordance with the method of Havel et al. [Havel, R. J. et al., J. Clin. Invest., 34, (1955)]. After adding 5 μM of Cu^2+, the mixture was warmed until a thiobarbituric acid reactive substance (TBARS) was produced. The test compounds were evaluated for their anti-oxidative action with the amount of TBARS being used as an index. [formula]

[4] = test system: lactoperoxidase reaction system (singlet oxygen); assay: Lactoperoxidase system (singlet oxygen system); conditions: pH 4.5, 37° C.
Description: The test compounds were evaluated under the following conditions for their effect against a lactoperoxidase reaction system.
Lactoperoxidase 10 μg/ml
Acetate buffer solution (pH 4.5)
as §1, with “hydrogen peroxide, sodium bromide” for “hypoxanthine”, “acetate” for “Hepes”, “lactoperoxidase” for “xanthine oxidase”, “was” for “was normally”, “singlet oxygen” for “superoxide”, “singlet oxygen.” for “superoxide.”

Row | Structure (SMILES) | Chemiluminescence intensity (% of control) ([1]; at 20 μM of compound) | Chemiluminescence intensity (% of control) ([1]; at 200 μM of compound) | IC50 [2] | TBARS produced (%) ([3]; at 10^-5 M of compound, 10 µM) | TBARS produced (%) ([3]; at 10^-6 M of compound, 1 µM) | Chemiluminescence intensity (% of control) ([4]; at 20 μM of compound) | Chemiluminescence intensity (% of control) ([4]; at 200 μM of compound)
1 | CC(C)(C)c1cc2c(c(C(C)(C)C)c1O)CCO2 [Compound a, 4,6-Di-tert-Butyl-5-Hydroxy-2,3-Dihydrobenzofuran] | 41.8 % of control | 26.1 % of control | 7 µM | 10.3% | 52.2% | 94.5 % of control | 56.6 % of control
2 | CC1Cc2c(ccc(O)c2C(C)(C)C)O1 (stereo not drawn) [Comparison 2, reference compound] | 32.7 % of control | 3.2 % of control | 54 µM |  |  | 82.1 % of control | 15.1 % of control
3 | CC1Cc2c(c(C(C)(C)C)cc(O)c2C(C)(C)C)O1 (stereo not drawn) [Comparison 6, reference compound] | 31.9 % of control | 24.0 % of control | 19 µM |  |  | 105.8 % of control | 8.1 % of control
4 | CCC(C)c1cc2c(c(C(C)(C)C)c1O)CCO2 (stereo not drawn) [Comparison 7, reference compound] | 55.8 % of control | 17.5 % of control | 7 µM |  |  | 86.2 % of control | 0.8 % of control
5 | CC(C)(C)c1c(O)ccc2c1CCO2 [Comparison 1, reference compound] | 23.9 % of control | 6.3 % of control | 62 µM |  |  | 77.6 % of control | 6.0 % of control
